Experimental data: patent US4419123A, “Herbicidal 4-trifluoromethyl-3'-carbon-substituted-4'-substituted diphenyl ethers” (Rohm and Haas Company, priority 1981, dated 1983)

What was measured:
corn = test: Crop tolerance (selective herbicidal activity), corn; format: in vivo
Experimental: (§1) The following test procedure is employed.
(§2) Following the general test procedure of Example 37, diphenyl ethers are evaluated for significant tolerance (as shown by 50% or less kill of the test crop at levels of application which give more than 50% kill of many or all of the weeds of Example 73) towards some or all of the following common agronomic crops (not all compounds tested against all crops): alfalfa, snapbeans, corn, cotton, cucumbers, peanuts, rape, rice, safflower, soybeans, tomatoes, and wheat.

rice = test: Crop tolerance (selective herbicidal activity), rice; format: in vivo
Experimental: as §1, §2

[1] = Postemergence herbicidal activity (% control) against monocot weeds; format: in vivo; settings: post-emergence, 336 h, average, about two weeks after application, read-out: Herbicidal activity (% control), postemergence, monocots; for activity at 2241.7 g/ha: 2 lb./A.; for activity at 4483.4 g/ha: 4 lb./A.
Description: (§3) barnyardgrass (Echinochloa crusgalli) crabgrass (Digitaria spp.) nutsedge (Cyperus esculentus)
(§4) At 2 and 4 pounds per acre:
(§5) **Bermudagrass (Cynodon dactylon)
(§6) *downy brome (Bromus tectorum) foxtail (Setaria faberii)
(§7) Johnsongrass (Sorghum halepense) […]
(§8) quackgrass (Agropyron repens)
(§9) *ryegrass (Lolium perenne)
(§10) *wild oats (Avena factua)
(§11) *yellow millet (Panicum miliaceum)
as §1

soybeans = test: Crop tolerance (selective herbicidal activity), soybeans; format: in vivo
Experimental: as §1, §2

[2] = Preemergence herbicidal activity (% control) against monocot weeds; format: in vivo; settings: pre-emergence, 336 h, average, about two weeks after application, read-out: Herbicidal activity (% control), preemergence, monocots; for activity at 2241.7 g/ha: 2 lb./A.; for activity at 4483.4 g/ha: 4 lb./A.
Description: as §3, §4, §5, §6, §7, §8, §9, §10, §11, §1

[3] = Postemergence herbicidal activity (% control) against dicot weeds; settings: post-emergence, 336 h; for activity at 2241.7 g/ha: read-out: Herbicidal activity (% control), postemergence, dicots, 2 lb./A., average, about two weeks after application; for activity at 4483.4 g/ha: read-out: Herbicidal activity (% control), postemergence, dicots, 4 lb./A., average, about two weeks after application
peanuts = test: Crop tolerance (selective herbicidal activity), peanuts; format: in vivo
Experimental: as §1, §2

wheat = test: Crop tolerance (selective herbicidal activity), wheat; format: in vivo
Experimental: as §1, §2

[4] = Preemergence herbicidal activity (% control) against dicot weeds; settings: pre-emergence, 336 h; for activity at 2241.7 g/ha: read-out: Herbicidal activity (% control), preemergence, dicots, 2 lb./A., average, about two weeks after application; for activity at 4483.4 g/ha: read-out: Herbicidal activity (% control), preemergence, dicots, 4 lb./A., average, about two weeks after application
[5] = postemergence applications or applications on transplanted rice

Compound | Tolerance to corn (corn; postemergence applications) | Tolerance to corn (corn; preemergence applications) | Tolerance to rice (rice; preemergence applications) | activity at 2241.7 g/ha [1] [%] | activity at 4483.4 g/ha [1] [%] | Tolerance to soybeans (soybeans; preemergence applications) | activity at 2241.7 g/ha [2] [%] | activity at 4483.4 g/ha [2] [%] | activity at 2241.7 g/ha [3] [%] | activity at 4483.4 g/ha [3] [%] | Tolerance to peanuts (peanuts; preemergence applications) | Tolerance to wheat (wheat; preemergence applications) | activity at 2241.7 g/ha [4] [%] | activity at 4483.4 g/ha [4] [%] | Tolerance to rice (rice; [5]) | Tolerance to soybeans (soybeans; postemergence or layby applications) | Tolerance to peanuts (peanuts; postemergence applications) | Tolerance to wheat (wheat; postemergence applications)
CCNc1cc(Oc2ccc(C(F)(F)F)cc2Cl)ccc1[N+](=O)[O-] [Example 19, 2-Chloro-α,α,α-trifluoro-p-tolyl-3-ethylamino-4-nitrophenyl ether] | Tolerance (significant tolerance (as shown by 50% or less kill of the test crop at levels of application which give more than 50% kill of many or all of the weeds of Example 73)) | Tolerance (significant tolerance (as shown by 50% or less kill of the test crop at levels of application which give more than 50% kill of many or all of the weeds of Example 73)) | Tolerance (significant tolerance (as shown by 50% or less kill of the test crop at levels of application which give more than 50% kill of many or all of the weeds of Example 73)) | 94 | 84 | Tolerance (significant tolerance (as shown by 50% or less kill of the test crop at levels of application which give more than 50% kill of many or all of the weeds of Example 73)) | 77 | 91 | 97 | 98 | Tolerance (significant tolerance (as shown by 50% or less kill of the test crop at levels of application which give more than 50% kill of many or all of the weeds of Example 73)) | Tolerance (significant tolerance (as shown by 50% or less kill of the test crop at levels of application which give more than 50% kill of many or all of the weeds of Example 73)) | 91 | 96 |  |  |  | 
CCC(=O)Nc1cc(Oc2ccc(C(F)(F)F)cc2Cl)ccc1[N+](=O)[O-] [Example 34] | Tolerance (significant tolerance (as shown by 50% or less kill of the test crop at levels of application which give more than 50% kill of many or all of the weeds of Example 73)) | Tolerance (significant tolerance (as shown by 50% or less kill of the test crop at levels of application which give more than 50% kill of many or all of the weeds of Example 73)) | Tolerance (significant tolerance (as shown by 50% or less kill of the test crop at levels of application which give more than 50% kill of many or all of the weeds of Example 73)) | 47 | 32 | Tolerance (significant tolerance (as shown by 50% or less kill of the test crop at levels of application which give more than 50% kill of many or all of the weeds of Example 73)) | 83 | 35 | 90 | 89 | Tolerance (significant tolerance (as shown by 50% or less kill of the test crop at levels of application which give more than 50% kill of many or all of the weeds of Example 73)) | Tolerance (significant tolerance (as shown by 50% or less kill of the test crop at levels of application which give more than 50% kill of many or all of the weeds of Example 73)) | 85 | 52 | Tolerance (significant tolerance (as shown by 50% or less kill of the test crop at levels of application which give more than 50% kill of many or all of the weeds of Example 73)) | Tolerance (significant tolerance (as shown by 50% or less kill of the test crop at levels of application which give more than 50% kill of many or all of the weeds of Example 73)) | Tolerance (significant tolerance (as shown by 50% or less kill of the test crop at levels of application which give more than 50% kill of many or all of the weeds of Example 73)) | Tolerance (significant tolerance (as shown by 50% or less kill of the test crop at levels of application which give more than 50% kill of many or all of the weeds of Example 73))
CSCCOc1cc(Oc2ccc(C(F)(F)F)cc2Cl)ccc1[N+](=O)[O-] [Example 40] | Tolerance (significant tolerance (as shown by 50% or less kill of the test crop at levels of application which give more than 50% kill of many or all of the weeds of Example 73)) | Tolerance (significant tolerance (as shown by 50% or less kill of the test crop at levels of application which give more than 50% kill of many or all of the weeds of Example 73)) | Tolerance (significant tolerance (as shown by 50% or less kill of the test crop at levels of application which give more than 50% kill of many or all of the weeds of Example 73)) | 81 | 64 | Tolerance (significant tolerance (as shown by 50% or less kill of the test crop at levels of application which give more than 50% kill of many or all of the weeds of Example 73)) | 88 | 86 | 100 | 100 | Tolerance (significant tolerance (as shown by 50% or less kill of the test crop at levels of application which give more than 50% kill of many or all of the weeds of Example 73)) | Tolerance (significant tolerance (as shown by 50% or less kill of the test crop at levels of application which give more than 50% kill of many or all of the weeds of Example 73)) | 98 | 92 | Tolerance (significant tolerance (as shown by 50% or less kill of the test crop at levels of application which give more than 50% kill of many or all of the weeds of Example 73)) |  | Tolerance (significant tolerance (as shown by 50% or less kill of the test crop at levels of application which give more than 50% kill of many or all of the weeds of Example 73)) | 
CCN(CC)c1cc(Oc2ccc(C(F)(F)F)cc2Cl)ccc1[N+](=O)[O-] [Example 21, 2-Chloro-α,α,α-trifluoro-p-tolyl-3-diethylamino-4-nitrophenyl ether] | Tolerance (significant tolerance (as shown by 50% or less kill of the test crop at levels of application which give more than 50% kill of many or all of the weeds of Example 73)) | Tolerance (significant tolerance (as shown by 50% or less kill of the test crop at levels of application which give more than 50% kill of many or all of the weeds of Example 73)) | Tolerance (significant tolerance (as shown by 50% or less kill of the test crop at levels of application which give more than 50% kill of many or all of the weeds of Example 73)) | 90 | 74 | Tolerance (significant tolerance (as shown by 50% or less kill of the test crop at levels of application which give more than 50% kill of many or all of the weeds of Example 73)) | 79 | 91 | 94 | 96 | Tolerance (significant tolerance (as shown by 50% or less kill of the test crop at levels of application which give more than 50% kill of many or all of the weeds of Example 73)) |  | 90 | 99 |  |  |  | Tolerance (significant tolerance (as shown by 50% or less kill of the test crop at levels of application which give more than 50% kill of many or all of the weeds of Example 73))
CC(=O)Oc1cc(Oc2ccc(C(F)(F)F)cc2Cl)ccc1[N+](=O)[O-] [Example 18, 2-Chloro-α,α,α-trifluoro-p-tolyl-3-acetoxy-4-nitrophenylether] | Tolerance (significant tolerance (as shown by 50% or less kill of the test crop at levels of application which give more than 50% kill of many or all of the weeds of Example 73)) |  |  | 28 | 28 | Tolerance (significant tolerance (as shown by 50% or less kill of the test crop at levels of application which give more than 50% kill of many or all of the weeds of Example 73)) | 99 | 67 | 98 | 86 |  | Tolerance (significant tolerance (as shown by 50% or less kill of the test crop at levels of application which give more than 50% kill of many or all of the weeds of Example 73)) | 100 | 100 | Tolerance (significant tolerance (as shown by 50% or less kill of the test crop at levels of application which give more than 50% kill of many or all of the weeds of Example 73)) |  | Tolerance (significant tolerance (as shown by 50% or less kill of the test crop at levels of application which give more than 50% kill of many or all of the weeds of Example 73)) | Tolerance (significant tolerance (as shown by 50% or less kill of the test crop at levels of application which give more than 50% kill of many or all of the weeds of Example 73))
